# Measured values: patent publication US7923425B2, “Low-foaming, acidic low-temperature cleaner and process for cleaning surfaces” (Henkel AG & Co. KGaA, priority 2006, dated 2011)
# Where “and” joins values, the source holds several entries; their conditions need not be identical. Equal values may be shown once.
# What was measured:
# [1] = Cleaning test on soiled aluminum panels, mineral oil soil; conditions: 0.05% alone in water, no matrix, 120° F., 90 seconds
# Protocol: (§1) A series of commercially available cleaners as well as certain surfactants and related compounds in water, alone, without a builder matrix were tested for cleaning performance. The cleaning effectiveness of each cleaner composition was tested follows: • 1. Soiled aluminum panels, 1″×4″, were used as the test specimens. […] Mineral oil and corn oil, each modified by the addition of 10% graphite, were used as the soils for each screening. Soil patches on the aluminum were deposited immediately before testing.
# (§2) The test specimens were cleaned by low-impingement, continuously circulated aqueous working baths to determine chemical cleaning strength. The test also screened for foaminess. The continuous circulation promoted foam formation. Cleaning effectiveness was evaluated gravimetrically and the percentage of oily contaminant removed by the formulation was calculated by comparing soil weights before and after cleaning. This technique is a common procedure in analytic chemistry and will be familiar to those of skill in the art. The results of these experiments are summarized in Tables 1 and 3 as percent reduction of soil.
# [2] = Cleaning test on soiled aluminum panels, corn oil soil; conditions: 0.05% alone in water, no matrix, 120° F., 90 seconds
# Protocol: as §1, §2
compound,measurement,setting,value
"OCCOCCOCc1ccccc1 [Surfactant #7, benzyl alcohol ethoxylate, C6H5CH2—O—(CH2—CH2—O)n—H, n=2]","% reduction of soil, Min Oil, single panel",[1],98.9% and 100.0% (2×)
same,"% reduction of soil, Corn Oil, single panel",[2],92.2% and 92.0% and 91.6%
tri(propylene glycol) propyl ether,"% reduction of soil, Min Oil, single panel",[1],93.9% and 100.0% (2×)
same,"% reduction of soil, Corn Oil, single panel",[2],90.0% and 88.9% and 95.0%
